Laboratory results as given in PubChem BioAssay (NCI).
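A five-concentration, 48-hour dose response in 96-well plates underlies each endpoint, interpolated linearly between surrounding concentrations. At the GI50, growth is halved. TGI marks complete inhibition of growth.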

Key:
Assay in all cases: DTP human tumour cell line panel, 48 h
CAKI-1 renal = tested on: CAKI-1 renal
CCRF-CEM leukemia = tested on: CCRF-CEM leukemia
COLO 205 colon = tested on: COLO 205 colon
HL-60(TB) leukemia = tested on: HL-60(TB) leukemia
HOP-92 NSCLC = tested on: HOP-92 NSCLC
MOLT-4 leukemia = tested on: MOLT-4 leukemia
SK-MEL-28 melanoma = tested on: SK-MEL-28 melanoma
SK-OV-3 ovarian = tested on: SK-OV-3 ovarian

Compound	GI50 (CAKI-1 renal)	TGI (CAKI-1 renal)	GI50 (CCRF-CEM leukemia)	TGI (CCRF-CEM leukemia)	GI50 (COLO 205 colon)	TGI (COLO 205 colon)	GI50 (HL-60(TB) leukemia)	TGI (HL-60(TB) leukemia)	GI50 (HOP-92 NSCLC)	TGI (HOP-92 NSCLC)	GI50 (MOLT-4 leukemia)	TGI (MOLT-4 leukemia)	GI50 (SK-MEL-28 melanoma)	TGI (SK-MEL-28 melanoma)	GI50 (SK-OV-3 ovarian)	TGI (SK-OV-3 ovarian)
CSc1c(C2=C(c3cn(C)c4ccccc34)C(=O)NC2=O)c2ccccc2n1C	0.741 µM	> 20.4 µM	0.793 µM	> 17 µM	0.675 µM	> 25 µM	0.703 µM	3.55 µM	0.599 µM	> 25 µM	1.43 µM	8.78 µM	1.85 µM	> 25 µM	0.833 µM	> 25 µM
COc1cc2c(c(OC)c1OC)-c1ccc(O)cc1[C@@H](NC(C)=O)CC2	0.183 µM	> 39.8 µM	0.0318 µM	1.62 µM	0.0319 µM	0.0859 µM	0.0227 µM	0.0645 µM	–	> 100 µM	0.0578 µM	–	0.0528 µM	> 100 µM	0.0377 µM	> 100 µM
CCCCCCCCCCCCCCCCCc1nccn1CCOCCO	6.3 µg/mL	13.1 µg/mL	5.18 µg/mL	12.4 µg/mL	6.07 µg/mL	11.4 µg/mL	7.56 µg/mL	15.2 µg/mL	2.33 µg/mL	7.98 µg/mL	5.5 µg/mL	12.3 µg/mL	6.22 µg/mL	11.4 µg/mL	5.67 µg/mL	10.8 µg/mL
O=C(O)[C@H](Cc1c[nH]c2ccccc12)N1C(=O)c2ccccc2C1=O	–	> 100 µM	> 100 µM	> 100 µM	–	> 100 µM	> 100 µM	> 100 µM	72.3 µM	> 100 µM	> 100 µM	> 100 µM	–	> 100 µM	–	> 100 µM
COc1cc(C2CC(c3cccc(Nc4ccnc5cc(Cl)ccc45)c3)=NN2c2ccc(Cl)cc2)cc(OC)c1OC (centres undefined)	0.693 µM	> 100 µM	4.84 µM	> 100 µM	3.13 µM	24.5 µM	4.18 µM	> 100 µM	1.85 µM	74.8 µM	3.68 µM	> 100 µM	4.54 µM	> 100 µM	17.3 µM	> 100 µM
CCCCOC(=O)c1ccc(N)cc1	11.4 µM	> 100 µM	48.2 µM	> 100 µM	32.1 µM	> 100 µM	52.7 µM	> 100 µM	95.1 µM	> 100 µM	> 100 µM	> 100 µM	> 100 µM	> 100 µM	> 100 µM	> 100 µM
CCCCCCCCCCCCCCCC1=NCCN1	1.67 µM	3.58 µM	–	–	1.86 µM	3.66 µM	1.73 µM	3.89 µM	2.15 µM	4.8 µM	–	–	1.88 µM	3.77 µM	2.23 µM	4.85 µM
O=C1C(Cl)=C(Nc2ccc(Nc3ccccc3)c(NC3=C(Cl)C(=O)c4ccccc4C3=O)c2)C(=O)c2ccccc21	5.36 µM	29 µM	3.71 µM	> 100 µM	–	–	2.07 µM	4.65 µM	0.0439 µM	3.27 µM	–	–	32.9 µM	96.5 µM	–	–
Cc1ccc2oc(=O)cc(/C(=C3/C=CC=N3)c3ccc[nH]3)c2c1	0.53 µM	10.6 µM	0.29 µM	4.01 µM	1.49 µM	3.49 µM	0.271 µM	0.717 µM	0.155 µM	2.57 µM	0.378 µM	2.14 µM	0.611 µM	3.46 µM	0.264 µM	0.815 µM
COC(=O)C1=C(O)[C@H](C(=O)OC)C2(O)C(C(=O)OC)[C@H](c3ccc(OC(=O)C(C)c4ccccc4)cc3)C[C@@H]1[C@@H]2C(=O)OC (some centres undefined)	15.2 µM	> 50 µM	–	–	13.7 µM	36.3 µM	43.3 µM	> 50 µM	> 50 µM	> 50 µM	–	–	26.7 µM	> 50 µM	33.3 µM	> 50 µM
O=C(CC1(O)C(=O)N(Cc2ccccc2)c2ccc(Cl)cc21)c1ccc(C(=O)NCC2CCC3(CC2)OOC2(CCCCC2)OO3)cc1 (centres undefined)	0.418 µM	0.864 µM	0.274 µM	0.662 µM	0.626 µM	1.66 µM	–	–	0.214 µM	0.402 µM	1.59 µM	4.56 µM	8.35 µM	> 100 µM	3.48 µM	> 21.1 µM
CCN1CCC(Nc2ccnc3cc(Cl)ccc23)CC1	21.5 µM	> 100 µM	36.9 µM	> 100 µM	12.5 µM	27.1 µM	–	–	45.3 µM	> 100 µM	18.5 µM	> 100 µM	18.1 µM	33.5 µM	> 100 µM	> 100 µM
CC(C)N1CCN(c2ccncc2S(=O)(=O)N2CCCCC2)CC1	–	> 100 µM	–	–	–	> 100 µM	–	> 100 µM	–	> 100 µM	–	–	–	> 100 µM	–	> 100 µM
C[C@@]1(C(=O)O)CCC[C@]2(C)C1CC[C@@]13C[C@@](O)(CC[C@]12O)[C@@]1(CO1)C3 (some centres undefined)	> 100 µM	> 100 µM	> 100 µM	> 100 µM	> 100 µM	> 100 µM	> 100 µM	> 100 µM	–	–	–	–	> 100 µM	> 100 µM	> 100 µM	> 100 µM
O=C(CCl)NCCNc1nccc(Nc2ccc(S(=O)(=O)Nc3ccccn3)cc2)n1	2.31 µM	10.4 µM	2.19 µM	9.03 µM	3.22 µM	11.6 µM	–	–	3.46 µM	9.09 µM	1.91 µM	11.9 µM	2.97 µM	13.5 µM	4.67 µM	42.8 µM
N#Cc1c(NCc2ccccc2)nc(NCc2ccccc2)c(C#N)c1-c1ccc(O)cc1	10.7 µM	44.8 µM	27.4 µM	> 100 µM	36.3 µM	> 100 µM	–	–	0.316 µM	7.96 µM	20.4 µM	> 100 µM	66.7 µM	> 100 µM	34.5 µM	> 100 µM
